Assay results taken from US10434083B2, “Transmammary delivery of cyclooxygenase-2 inhibitors for analgesia in neonates” (Iowa State University Research Foundation, Inc., priority 2018, dated 2019).

Test: Necropsy and histopathology examination of nursing piglets at 21 d
Format: in vivo, swine
Details: for Kidney: Mild tubular ectasia (number of piglets) / Kidney: Moderate ectasia (number of piglets) / Kidney: Prominent ectasia (number of piglets) / Kidney: Rare tubular ectasia (number of piglets) / Kidney: Within normal limits (number of piglets) / Liver: Within normal limits (number of piglets) / Small Intestine: Within normal limits (number of piglets) / Stomach: Mild gastritis (number of piglets) / Stomach: Mild vasculitis, muscle layer (number of piglets) / Stomach: Within normal limits (number of piglets): nursing piglets, 21 d
Method: Thereafter, sows and piglets in all groups were humanely euthanized and examined for macroscopic signs of NSAID toxicity. Necropsies were performed on all animals to inspect for macroscopic signs of NSAID toxicity. Samples of kidney, liver, small intestine and stomach were sectioned into 0.5-1 cm slices and placed in plastic jars containing 10% buffered formalin in a 10:1 formalin:tissue ratio for histopathology examination.
Formalin-fixed sections of kidney, liver, small intestine and stomach from sows and 3 piglets/litter were trimmed and positioned in cassettes loaded into an automated tissue processor (Sakura VIP 5, Sakura Finetek, Torrance, Calif.) for overnight paraffin infiltration. Processed tissues in cassettes were then placed in a paraffin bath (Sakura Tissue-Tek TEC 5, Sakura Finetek, Torrance, Calif.) after which they were removed from the cassette and oriented in molds. […] Tissue sections were cut at 4 microns from the cooled blocks. Paraffin ribbons with tissue were then laid out on a water bath and the floating tissue sections were collected onto microscope slides. The unstained tissue sections were then mounted on the slide and dried at 60° C. for 20 minutes. Finally, the tissue was deparaffinized and rehydrated for staining by transfer through xylene and a series of decreasing concentrations of alcohol to hematoxylin on an automated stainer (Sakura Tissue-Tek Prisma, Sakura Finetek, Torrance, Calif.). After a tap water rinse, the tissue on the slide was counterstained with eosin, dehydrated in an alcohol series, cleared in xylene and cover slipped (Sakura Tissue-Tek Glas g2) prior to histological examination by a veterinary diagnostician with experience in the histological examination of swine tissues.

## CC1(C)OC(=O)C(OCC2CC2)=C1c1ccc(S(C)(=O)=O)cc1 [firocoxib]
Sow dose 0.5 mg/kg IM
  Kidney: Mild tubular ectasia (number of piglets): 5
  Kidney: Moderate ectasia (number of piglets): 0
  Kidney: Prominent ectasia (number of piglets): 5
  Kidney: Rare tubular ectasia (number of piglets): 1
  Kidney: Within normal limits (number of piglets): 1
  Liver: Within normal limits (number of piglets): 12
  Small Intestine: Within normal limits (number of piglets): 12
  Stomach: Mild gastritis (number of piglets): 5
  Stomach: Mild vasculitis, muscle layer (number of piglets): 2
  Stomach: Within normal limits (number of piglets): 5
Sow dose 1.0 mg/kg IM
  Kidney: Mild tubular ectasia (number of piglets): 9
  Kidney: Moderate ectasia (number of piglets): 0
  Kidney: Prominent ectasia (number of piglets): 0
  Kidney: Rare tubular ectasia (number of piglets): 1
  Kidney: Within normal limits (number of piglets): 2
  Liver: Within normal limits (number of piglets): 12
  Small Intestine: Within normal limits (number of piglets): 12
  Stomach: Mild gastritis (number of piglets): 6
  Stomach: Mild vasculitis, muscle layer (number of piglets): 2
  Stomach: Within normal limits (number of piglets): 4
Sow dose 1.5 mg/kg IM
  Kidney: Mild tubular ectasia (number of piglets): 9
  Kidney: Moderate ectasia (number of piglets): 0
  Kidney: Prominent ectasia (number of piglets): 3
  Kidney: Rare tubular ectasia (number of piglets): 0
  Kidney: Within normal limits (number of piglets): 0
  Liver: Within normal limits (number of piglets): 12
  Small Intestine: Within normal limits (number of piglets): 12
  Stomach: Mild gastritis (number of piglets): 6
  Stomach: Mild vasculitis, muscle layer (number of piglets): 3
  Stomach: Within normal limits (number of piglets): 3
Sow dose 2.0 mg/kg IM
  Kidney: Mild tubular ectasia (number of piglets): 5
  Kidney: Moderate ectasia (number of piglets): 1
  Kidney: Prominent ectasia (number of piglets): 3
  Kidney: Rare tubular ectasia (number of piglets): 0
  Kidney: Within normal limits (number of piglets): 3
  Liver: Within normal limits (number of piglets): 12
  Small Intestine: Within normal limits (number of piglets): 12
  Stomach: Mild gastritis (number of piglets): 2
  Stomach: Mild vasculitis, muscle layer (number of piglets): 1
  Stomach: Within normal limits (number of piglets): 9
piglets, all treatment groups
  kidneys with ectatic tubules (number): 10
  sections of stomach lining with mild gastritis (number): 19
